Patent US20210069295A1, “GALECTINS CONTROL MTOR IN RESPONSE TO ENDOMEMBRANE DAMAGE AND PROVIDE A MECHANISM AND TARGET FOR THE TREATMENT OF AUTOPHAGY-RELATED DISEASES” (STC. UNM, priority 2017, published 2021)
Peptide text beside a SMILES is read from it.

Legend:
[1] = tested on: bone marrow-derived macrophages (BMMs); test: LysoTracker Red DND-99 staining in bone marrow-derived macrophages (BMMs); type: cell-based, murine; settings: GPN 400 μM or LLOMe, 1 h
[2] = tested on: Gal8 and Gal9; test: Galectin puncta formation by high-content microscopy in HeLa cells; type: cell-based; settings: HeLa cells overexpressing GFP-Gal8 or GFP-Gal9, 100 μM, 1 h full medium
Method: (A) Analysis of the puncta formation of galectins in response to GPN. HeLa cells overexpressing YFP-fused with the indicated galectins were treated with 100 μM GPN or without (Ctrl) in full medium for 1 h and galectin puncta were quantified by HC. […] White masks, algorithm defined cell boundaries (primary objects); green masks, computer-identified galectins puncta (target objects). Data, means±SEM, n≥3 independent experiments (500 primary objects counted per well; ≥5 wells/sample per each experiment); *p<0.05, **p<0.01, † p≥0.05, ANOVA. (B) Immunoprecipitation analysis of the interactions between galectins and mTOR or RagA GTPase. HEK293T cells overexpressing FLAG-tagged galectins were subjected to anti-FLAG immunoprecipitation followed by immunoblotting for endogenous mTOR or RagA. (C) Immunoprecipitation analysis of interactions between Gal8 and mTOR protein complexes in response to GPN treatment. […] Biotinylated proteins from HEK293T cell expressing APEX2-vector or APEX2-Gal8, after GPN and biotin phenol (BP) treatment were affinity-enriched by binding to streptavidin-beads, and samples were analyzed by immunoblotting analysis for endogenous RagA, p14, mTOR or Raptor. […]
(A) HC analysis of the puncta of galectins in response to chloroquine, Bafilomycin A1 and GPN. HeLa cells overexpressing GFP-Gal8 or GFP-Gal9 were treated with 100 μM chloroquine (CQ), […] (BAF) or 100 μM GPN in full medium for 1 h, and the puncta of GFP-Gal8 or GFP-Gal9 were quantified by HC. […] Data, means±SEM, n≥3 independent experiments (500 primary objects counted per well; ≥5 wells/sample per each experiment), † p≥0.05, **p<0.01, ANOVA. […] HeLa cells expressing GFP-Gal8 were treated with 100 μM GPN in full medium for 1 h, and the overlap between GFP-Gal8 and LAMP2 were quantified by HC. […] Data, means±SEM, n≥3 independent experiments (500 primary objects counted per well; ≥5 wells/sample per each experiment), **p<0.01, ANOVA. […]

In the case of NCC(=O)N[C@@H](Cc1ccccc1)C(=O)Nc1ccc2ccccc2c1 [GPN, glycyl-L-phenylalanine 2-naphththylamide] (HELM PEPTIDE1{G.F.[c1ccc2cc(N[*:1])ccc2c1]}$$$$V2.0), the “LysoTracker Red DND-99 staining in BMMs (lysosomal damage)” value [1] is reported as “reduced LysoTracker Red DND-99 staining” and the “Gal8 and Gal9 puncta formation” value [2] is reported as “formed puncta”.
